Test results taken from ChEMBL document CHEMBL2074213, “In vitro activities of native and designed peptide antibiotics against drug sensitive and resistant tumor cell lines” (Peptides, 2003).
Bridge positions count the residues as written; N and C are the ends. Peptide text beside a SMILES is read from it.

biological target: ATP-dependent translocase ABCB1 (Homo sapiens, UniProt P08183); test: TP_TRANSPORTER: drug resistance in MCF-7/Dox cells; format: functional, cell-based
Sequence (P08183 whole entry): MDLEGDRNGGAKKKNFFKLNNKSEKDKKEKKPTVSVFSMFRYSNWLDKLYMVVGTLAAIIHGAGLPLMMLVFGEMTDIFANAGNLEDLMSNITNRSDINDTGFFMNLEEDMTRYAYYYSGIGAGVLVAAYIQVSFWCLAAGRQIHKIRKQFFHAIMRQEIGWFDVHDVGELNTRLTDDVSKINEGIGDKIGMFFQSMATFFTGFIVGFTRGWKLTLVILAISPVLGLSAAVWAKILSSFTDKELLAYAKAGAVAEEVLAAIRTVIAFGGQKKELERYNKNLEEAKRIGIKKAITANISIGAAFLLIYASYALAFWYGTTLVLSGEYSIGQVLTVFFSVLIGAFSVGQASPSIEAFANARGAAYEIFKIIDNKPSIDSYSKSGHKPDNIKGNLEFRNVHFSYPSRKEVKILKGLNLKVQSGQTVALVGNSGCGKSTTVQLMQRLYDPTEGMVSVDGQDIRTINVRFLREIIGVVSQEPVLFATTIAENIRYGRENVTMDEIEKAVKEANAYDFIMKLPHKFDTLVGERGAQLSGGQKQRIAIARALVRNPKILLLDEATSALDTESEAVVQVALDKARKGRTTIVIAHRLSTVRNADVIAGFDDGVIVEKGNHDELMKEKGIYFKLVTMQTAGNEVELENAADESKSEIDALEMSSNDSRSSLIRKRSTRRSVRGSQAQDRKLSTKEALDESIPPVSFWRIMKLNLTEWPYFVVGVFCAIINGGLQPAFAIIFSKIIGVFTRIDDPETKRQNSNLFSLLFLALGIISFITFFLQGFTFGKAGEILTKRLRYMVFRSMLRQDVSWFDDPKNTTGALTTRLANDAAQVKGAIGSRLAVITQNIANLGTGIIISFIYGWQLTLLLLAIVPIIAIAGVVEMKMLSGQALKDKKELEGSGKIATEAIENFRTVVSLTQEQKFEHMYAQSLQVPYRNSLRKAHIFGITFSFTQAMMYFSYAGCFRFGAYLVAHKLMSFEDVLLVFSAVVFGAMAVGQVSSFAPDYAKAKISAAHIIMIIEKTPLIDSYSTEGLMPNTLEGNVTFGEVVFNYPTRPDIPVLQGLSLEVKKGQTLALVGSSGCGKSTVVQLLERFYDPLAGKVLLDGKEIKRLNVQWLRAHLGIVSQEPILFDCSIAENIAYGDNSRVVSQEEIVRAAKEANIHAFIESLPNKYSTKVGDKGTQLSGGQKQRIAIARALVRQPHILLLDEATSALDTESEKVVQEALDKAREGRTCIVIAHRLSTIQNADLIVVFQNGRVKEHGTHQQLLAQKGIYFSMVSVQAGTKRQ

| Molecule | Activity |
| --- | --- |
| CC[C@H](C)[C@@H]1NC(=O)[C@H](CCCCN)NC(=O)[C@@H](NC(=O)[C@@H](NC(=O)[C@@H](NC(=O)[C@@H](NC(=O)[C@@H]2CCCN2C(=O)[C@H](CC(C)C)NC(=O)[C@H](Cc2ccccc2)NC(=O)[C@H](CC(N)=O)NC(=O)[C@H](C)NC(=O)[C@H](C)NC(=O)[C@H](CC(C)C)NC(=O)CNC(=O)[C@H](C)NC(=O)[C@H](CC(C)C)NC(=O)[C@H](CC(C)C)NC(=O)[C@@H]2CCCN2C(=O)[C@H](CC(C)C)NC(=O)[C@@H](N)Cc2ccccc2)[C@@H](C)O)[C@@H](C)CC)[C@@H](C)CC)CSSC[C@@H](C(=O)O)NC(=O)[C@H](CCCCN)NC(=O)[C@H](Cc2ccc(O)cc2)NC(=O)[C@H](CO)NC1=O [GAEGURIN 6] (H-FLPLLAGLAANFLPTIICKISYKC-OH; disulfide 18-24) | is not a substrate [-] |
| COc1cccc2c1C(=O)c1c(O)c3c(c(O)c1C2=O)C[C@@](O)(C(=O)CO)C[C@@H]3O[C@H]1C[C@H](N)[C@H](O)[C@H](C)O1 [DOXORUBICIN] | substrate [+] |
| H-FLGALFKALCKLL-OH | is not a substrate [-] |

More lines, now with the values ahead:

| Activity | Molecule |
| --- | --- |
| substrate [+] | CC(=O)O[C@H]1C(=O)[C@@]2(C)[C@H]([C@H](OC(=O)c3ccccc3)[C@]3(O)C[C@H](OC(=O)[C@H](O)[C@@H](NC(=O)c4ccccc4)c4ccccc4)C(C)=C1C3(C)C)[C@]1(OC(C)=O)CO[C@@H]1C[C@@H]2O [PACLITAXEL] |
| is not a substrate [-] | H-FLGALFKALSKLL-OH |
